In PubChem BioAssay AID1963444 (Molecular Pharmacology Branch, DTP, NCI, 2024):
pIC50: −log10 of the molar value. Several values for one entry are separate records, joined by “and”; a condition that tells them apart may be missing. Equal values may be shown once. Blank lines part the entries; values can stand above or below the molecule they belong to.

System: HSSY-II complex spheroid growth, percent test/control
Assay: Anticancer human tumor HSSY-II cell line growth inhibition [Asc];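 further: spheroids exposed to drug for 7 days before reading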
Conditions: for viability, T/C: stronger effect = lower value
Summary of the method: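 Complex solid-tumor spheroids incorporating human endothelial and mesenchymal stem cells received single agents or combinations over half-log dilution ranges anchored to clinical Cmax.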

[1] = curve of first compound, second compound 0.03 µM
[2] = curve of first compound, second compound 0.0949 µM
[3] = curve of first compound, second compound 0.3 µM
[4] = curve of first compound, second compound 0.949 µM
[5] = curve of first compound, second compound 3 µM

- pIC50 (curve of first compound, second compound 0.1 µM): 7.75
- pIC50 (curve of first compound, second compound 0.316 µM): 7.74
- pIC50 (curve of first compound, second compound 1 µM): 7.87
- pIC50 (curve of first compound, second compound 3.16 µM): 7.82
- pIC50 (curve of first compound, second compound 10 µM): 7.88
Structure (SMILES): NC(=O)C(=Cn1cnc(-c2cc(C(F)(F)F)cc(C(F)(F)F)c2)n1)c1cncnc1 + Cc1c(S(C)(=O)=O)c(-c2cc(F)cc(N3CCN(c4ccc(NS(=O)(=O)c5ccc(NC(CCN6CCC(C(=O)OCCCP(=O)(O)O)CC6)CSc6ccccc6)c(S(=O)(=O)C(F)(F)F)c5)cc4)CC3)c2)c(-c2ccc(Cl)cc2)n1C(C)C
- viability, T/C (second compound 0.1 µM, first compound 0.000949 µM): 87.7%
- viability, T/C (second compound 0.1 µM, first compound 0.003 µM): 86%
- viability, T/C (second compound 0.1 µM, first compound 0.00949 µM): 65.4%
- viability, T/C (second compound 0.1 µM, first compound 0.03 µM): 37.4%
- viability, T/C (second compound 0.1 µM, first compound 0.0949 µM): 9.64%
- viability, T/C (second compound 0.1 µM, first compound 0.3 µM): 0.51%
- viability, T/C (second compound 0.316 µM, first compound 0.000949 µM): 99.8%
- viability, T/C (second compound 0.316 µM, first compound 0.003 µM): 83.5%
- viability, T/C (second compound 0.316 µM, first compound 0.00949 µM): 71.9%
- viability, T/C (second compound 0.316 µM, first compound 0.03 µM): 36.1%
- viability, T/C (second compound 0.316 µM, first compound 0.0949 µM): 6%
- viability, T/C (second compound 0.316 µM, first compound 0.3 µM): 0.34%
- viability, T/C (second compound 1 µM, first compound 0.000949 µM): 96.1%
- viability, T/C (second compound 1 µM, first compound 0.003 µM): 80%
- viability, T/C (second compound 1 µM, first compound 0.00949 µM): 61.3%
- viability, T/C (second compound 1 µM, first compound 0.03 µM): 30%
- viability, T/C (second compound 1 µM, first compound 0.0949 µM): 5.9%
- viability, T/C (second compound 1 µM, first compound 0.3 µM): 0.23%
- viability, T/C (second compound 3.16 µM, first compound 0.000949 µM): 91.1%
- viability, T/C (second compound 3.16 µM, first compound 0.003 µM): 84.3%
- viability, T/C (second compound 3.16 µM, first compound 0.00949 µM): 68.1%
- viability, T/C (second compound 3.16 µM, first compound 0.03 µM): 24%
- viability, T/C (second compound 3.16 µM, first compound 0.0949 µM): 2.17%
- viability, T/C (second compound 3.16 µM, first compound 0.3 µM): 0.24%
- viability, T/C (second compound 10 µM, first compound 0.000949 µM): 84.9%
- viability, T/C (second compound 10 µM, first compound 0.003 µM): 89.6%
- viability, T/C (second compound 10 µM, first compound 0.00949 µM): 56.5%
- viability, T/C (second compound 10 µM, first compound 0.03 µM): 26.9%
- viability, T/C (second compound 10 µM, first compound 0.0949 µM): 1.88%
- viability, T/C (second compound 10 µM, first compound 0.3 µM): 0.28%

- pIC50 [1]: < 5.52
- pIC50 [2]: 6.21
- pIC50 [3]: > 8.02
- pIC50 [4]: > 8.02
- pIC50 [5]: > 8.02
Structure (SMILES): Cc1nc(N2CCC3(CC2)COC(C)C3N)c(CO)nc1Sc1ccnc(N)c1Cl (configuration not stated) + CCN1C(C(=O)NC23CCC(C(=O)O)(CC2)CC3)C(c2cccc(Cl)c2F)C2(C(=O)Nc3cc(Cl)ccc32)C12CCCCC2
- viability, T/C (second compound 0.03 µM, first compound 0.00949 µM): 105%
- viability, T/C (second compound 0.03 µM, first compound 0.03 µM): 97.6%
- viability, T/C (second compound 0.03 µM, first compound 0.0949 µM): 100%
- viability, T/C (second compound 0.03 µM, first compound 0.3 µM): 93.2%
- viability, T/C (second compound 0.03 µM, first compound 0.949 µM): 88.8%
- viability, T/C (second compound 0.03 µM, first compound 3 µM): 59.8%
- viability, T/C (second compound 0.0949 µM, first compound 0.00949 µM): 64%
- viability, T/C (second compound 0.0949 µM, first compound 0.03 µM): 59.3%
- viability, T/C (second compound 0.0949 µM, first compound 0.0949 µM): 57.6%
- viability, T/C (second compound 0.0949 µM, first compound 0.3 µM): 58.7%
- viability, T/C (second compound 0.0949 µM, first compound 0.949 µM): 44.3%
- viability, T/C (second compound 0.0949 µM, first compound 3 µM): 36.6%
- viability, T/C (second compound 0.3 µM, first compound 0.00949 µM): 23.8%
- viability, T/C (second compound 0.3 µM, first compound 0.03 µM): 22.2%
- viability, T/C (second compound 0.3 µM, first compound 0.0949 µM): 23.4%
- viability, T/C (second compound 0.3 µM, first compound 0.3 µM): 23.2%
- viability, T/C (second compound 0.3 µM, first compound 0.949 µM): 14.6%
- viability, T/C (second compound 0.3 µM, first compound 3 µM): 18.5%
- viability, T/C (second compound 0.949 µM, first compound 0.00949 µM): 7.31%
- viability, T/C (second compound 0.949 µM, first compound 0.03 µM): 6.01%
- viability, T/C (second compound 0.949 µM, first compound 0.0949 µM): 4.66%
- viability, T/C (second compound 0.949 µM, first compound 0.3 µM): 3.37%
- viability, T/C (second compound 0.949 µM, first compound 0.949 µM): 2.01%
- viability, T/C (second compound 0.949 µM, first compound 3 µM): 2.02%
- viability, T/C (second compound 3 µM, first compound 0.00949 µM): 1.65%
- viability, T/C (second compound 3 µM, first compound 0.03 µM): 1.25%
- viability, T/C (second compound 3 µM, first compound 0.0949 µM): 0.81%
- viability, T/C (second compound 3 µM, first compound 0.3 µM): 0.41%
- viability, T/C (second compound 3 µM, first compound 0.949 µM): 0.35%
- viability, T/C (second compound 3 µM, first compound 3 µM): 0.42%

- pIC50 [1]: 6.31
- pIC50 [2]: 6.73
- pIC50 [3]: > 8.50
- pIC50 [4]: > 8.50
- pIC50 [5]: > 8.50
Structure (SMILES): O=C(c1ccc(F)c(F)c1Nc1ccc(I)cc1F)N1CC(O)([C@@H]2CCCCN2)C1 + CCN1C(C(=O)NC23CCC(C(=O)O)(CC2)CC3)C(c2cccc(Cl)c2F)C2(C(=O)Nc3cc(Cl)ccc32)C12CCCCC2
- viability, T/C (second compound 0.03 µM, first compound 0.00316 µM): 101%
- viability, T/C (second compound 0.03 µM, first compound 0.01 µM): 96.6%
- viability, T/C (second compound 0.03 µM, first compound 0.0316 µM): 77.7%
- viability, T/C (second compound 0.03 µM, first compound 0.1 µM): 98.5%
- viability, T/C (second compound 0.03 µM, first compound 0.316 µM): 66.7%
- viability, T/C (second compound 0.03 µM, first compound 1 µM): 21.7%
- viability, T/C (second compound 0.0949 µM, first compound 0.00316 µM): 66.7%
- viability, T/C (second compound 0.0949 µM, first compound 0.01 µM): 70.8%
- viability, T/C (second compound 0.0949 µM, first compound 0.0316 µM): 67.9%
- viability, T/C (second compound 0.0949 µM, first compound 0.1 µM): 59.9%
- viability, T/C (second compound 0.0949 µM, first compound 0.316 µM): 41.2%
- viability, T/C (second compound 0.0949 µM, first compound 1 µM): 15.8%
- viability, T/C (second compound 0.3 µM, first compound 0.00316 µM): 30.3%
- viability, T/C (second compound 0.3 µM, first compound 0.01 µM): 25.7%
- viability, T/C (second compound 0.3 µM, first compound 0.0316 µM): 34.2%
- viability, T/C (second compound 0.3 µM, first compound 0.1 µM): 28.1%
- viability, T/C (second compound 0.3 µM, first compound 0.316 µM): 24.2%
- viability, T/C (second compound 0.3 µM, first compound 1 µM): 7.55%
- viability, T/C (second compound 0.949 µM, first compound 0.00316 µM): 6.94%
- viability, T/C (second compound 0.949 µM, first compound 0.01 µM): 9.74%
- viability, T/C (second compound 0.949 µM, first compound 0.0316 µM): 7.24%
- viability, T/C (second compound 0.949 µM, first compound 0.1 µM): 6.73%
- viability, T/C (second compound 0.949 µM, first compound 0.316 µM): 5.75%
- viability, T/C (second compound 0.949 µM, first compound 1 µM): 2.34%
- viability, T/C (second compound 3 µM, first compound 0.00316 µM): 2.22%
- viability, T/C (second compound 3 µM, first compound 0.01 µM): 2.17%
- viability, T/C (second compound 3 µM, first compound 0.0316 µM): 2.09%
- viability, T/C (second compound 3 µM, first compound 0.1 µM): 2.02%
- viability, T/C (second compound 3 µM, first compound 0.316 µM): 1.16%
- viability, T/C (second compound 3 µM, first compound 1 µM): 0.62%

- pIC50 (curve of compound): 6.28 and 6.25 and 6.23
Structure (SMILES): O=C(c1ccc(F)c(F)c1Nc1ccc(I)cc1F)N1CC(O)([C@@H]2CCCCN2)C1
- viability, T/C (compound 0.00316 µM): 97.1% and 106% and 100%
- viability, T/C (compound 0.01 µM): 99.7% and 107% and 102%
- viability, T/C (compound 0.0316 µM): 83.1% and 103% and 102%
- viability, T/C (compound 0.1 µM): 92.8% and 102% and 122%
- viability, T/C (compound 0.316 µM): 73.6% and 74.8% and 78.3%
- viability, T/C (compound 1 µM): 19.4% and 25.9% and 26%
